Reference: patent publication US20060263448A1, “Use of extracts from roots of pelargonium sidoides and pelargonium reniforme” (priority 2004, published 2006)

System: Mycobacterium ranae
Test: Assay on anti-mycobacterial activity (suspension dilution method)
Type: cell-based
Details: M. ranae, 48 h at 37° C., visual evaluation of growth inhibition
Protocol: To assay the anti-mycobacterial efficacy, Mycobacterium ranae that represents a non-human pathogenic mycobacterium having a similar sensitivity against chemotherapeutic agents like M. tuberculosis was used. The suspension dilution method was used to determine the minimal inhibitory concentration (MHC). The extract of Pelargonium sidoides was solved in DMSO and serially diluted to obtain the required concentrations. Pelargonium extract or the solvent was added in a volume of 10 μl to 48-well microtiter plates containing 990 μl of an M. ranae suspension (ATCC 10) in a concentration of 1-5×10^5 CFU/ml Brain-Heart Infusion Broth (Difco, USA) per well. The maximum concentration of the solvent (DMSO) was 1%. Pelargonium extract was tested at concentrations between 100 and 0.03 μg/ml. All tests were carried out twice. The plates were incubated for 48 h at 37° C. and then the inhibition of the growth of the bacteria was evaluated visually.

## Gentamicin
  minimal inhibitory concentration (MHC): 0.3 µg/mL
